The values below come from patent publication US20140011799A1 (Bristol-Myers Squibb Company, priority 2012, published 2014).

Assay [1] concerns the target T1, Endothelial lipase (EL) (Homo sapiens, UniProt Q9Y5X9).
T1 construct: HT-1080 cells that were transformed using RAGE technology (Athersys) to overexpress endogenous EL; endogenous in cells; conditioned medium used
T1 sequence (Q9Y5X9 21-500): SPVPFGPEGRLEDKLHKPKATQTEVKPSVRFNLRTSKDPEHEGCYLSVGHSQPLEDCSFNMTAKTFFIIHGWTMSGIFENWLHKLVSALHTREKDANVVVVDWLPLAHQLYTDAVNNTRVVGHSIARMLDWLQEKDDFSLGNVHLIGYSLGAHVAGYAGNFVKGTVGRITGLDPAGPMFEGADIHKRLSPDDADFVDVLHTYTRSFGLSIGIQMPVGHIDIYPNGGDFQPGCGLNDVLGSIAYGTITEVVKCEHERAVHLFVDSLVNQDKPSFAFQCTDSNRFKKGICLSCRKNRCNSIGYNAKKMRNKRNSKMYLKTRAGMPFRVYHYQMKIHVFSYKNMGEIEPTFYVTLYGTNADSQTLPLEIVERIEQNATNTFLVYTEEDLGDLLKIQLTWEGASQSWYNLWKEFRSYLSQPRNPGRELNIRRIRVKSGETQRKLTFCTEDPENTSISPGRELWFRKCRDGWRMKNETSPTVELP
The assay is described as follows: Endothelial lipase (EL) enzymatic assay, fluorescent substrate A10070 in DMPG vesicles. The format is biochemical. The following applies: EL from conditioned media of HT-1080 cells; compound preincubated 30 min at 37° C; read-out: EL IC50. In outline:
(§1)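 EL from conditioned medium of HT-1080 cells engineered to overexpress endogenous EL; HL partially purified from conditioned medium of HL-overexpressing COS cells. Enzyme preincubated with compound 30 min at 37° C in 50 mM HEPES pH 8.0, 50 mM NaCl, 1 mM CaCl2; DMPG vesicles carrying FRET substrate (0.11 mole fraction) then added.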

The target of assay [2] is T2, hepatic lipase (HL) (Homo sapiens, UniProt P11150).
T2 construct: made in house; host or cells: COS cells (conditioned medium, partially purified)
T2 sequence (P11150 23-499): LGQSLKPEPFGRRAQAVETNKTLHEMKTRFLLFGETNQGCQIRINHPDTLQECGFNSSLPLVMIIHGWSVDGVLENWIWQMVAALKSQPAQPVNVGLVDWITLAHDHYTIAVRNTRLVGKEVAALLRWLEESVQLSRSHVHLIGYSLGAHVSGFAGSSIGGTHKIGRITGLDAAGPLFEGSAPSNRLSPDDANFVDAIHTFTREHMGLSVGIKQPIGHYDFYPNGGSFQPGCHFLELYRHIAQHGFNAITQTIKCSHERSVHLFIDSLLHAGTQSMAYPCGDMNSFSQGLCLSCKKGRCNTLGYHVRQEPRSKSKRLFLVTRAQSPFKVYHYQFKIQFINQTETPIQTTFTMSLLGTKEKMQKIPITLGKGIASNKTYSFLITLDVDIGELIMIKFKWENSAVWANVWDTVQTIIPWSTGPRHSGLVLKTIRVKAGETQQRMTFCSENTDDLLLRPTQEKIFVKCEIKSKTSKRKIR
The assay is described as follows: Hepatic lipase (HL) enzymatic assay, fluorescent substrate A10070 in DMPG vesicles. The format is biochemical. The following applies: HL partially purified from conditioned media of COS cells; compound preincubated 30 min at 37° C; read-out: HL IC50. The essentials: as §1

pIC50: −log10 of the molar value.

As for `CC1(Cc2nnc(C(c3nc4ccc(-c5cccc(C(=O)N6CC[C@H](O)C6)c5)cc4s3)S(C)(=O)=O)o2)NC(=O)NC1=O` (stereo partly drawn) [Example 207, 5-({5-[(6-{3-[(3S)-3-hydroxypyrrolidine-1-carbonyl]phenyl}-1,3-benzothiazol-2-yl) (methanesulfonyl)methyl]-1,3,4-oxadiazol-2-yl}methyl)-5-methyl-imidazolidine-2,4-dione], the negative-log IC50 (pIC50) is 7.66 in assay [1] and 6.43 in assay [2].

For the compound `CC1(Cc2nnc(C(c3nc4ccc(-c5cccc(C(=O)N6CC(F)(F)C6)c5)cc4s3)S(C)(=O)=O)o2)NC(=O)NC1=O` (centres unmarked) [Example 208, 5-{[5-({6-[3-(3,3-difluoroazetidine-1-carbonyl)phenyl]-1,3-benzothiazol-2-yl} (methanesulfonyl)methyl)-1,3,4-oxadiazol-2-yl]methyl}-5-methyl-imidazolidine-2,4-dione], the pIC50 in assay [1] was 6.75; in assay [2] it was 6.88.

As to `COC1CN(C(=O)c2cccc(-c3ccc4nc(C(c5nnc(CC6(C)NC(=O)NC6=O)o5)S(C)(=O)=O)sc4c3)c2)C1` (centres unmarked) [Example 209, 5-({5-[methanesulfonyl({6-[3-(3-methoxyazetidine-1-carbonyl)phenyl]-1,3-benzothiazol-2-yl})methyl]-1,3,4-oxadiazol-2-yl}methyl)-5-methyl-imidazolidine-2,4-dione], the figures for the negative-log IC50 (pIC50) in assay [1] and in assay [2] were 7.74 and 6.64, respectively.

Regarding `CC1(Cc2nnc(C(c3nc4ccc(-c5cccc(C(=O)N6CCOCC6)c5)cc4s3)S(C)(=O)=O)o2)NC(=O)NC1=O` (centres unmarked) [Example 210, 5-({5-[methanesulfonyl({6-[3-(morpholine-4-carbonyl)phenyl]-1,3-benzothiazol-2-yl})methyl]-1,3,4-oxadiazol-2-yl}methyl)-5-methyl-imidazolidine-2,4-dione], the negative logarithm of the IC50 (pIC50) is 8.05 in assay [1] and 6.44 in assay [2].

For the compound `CO[C@@H]1CCN(C(=O)c2cccc(-c3ccc4nc(C(c5nnc(CC6(C)NC(=O)NC6=O)o5)S(C)(=O)=O)sc4c3)c2)C1` (stereo partly drawn) [Example 211, 5-({5-[methanesulfonyl(6-{3-[(3R)-3-methoxy-pyrrolidine-1-carbonyl]phenyl}-1,3-benzothiazol-2-yl)methyl]-1,3,4-oxadiazol-2-yl}methyl)-5-methyl-imidazolidine-2,4-dione], the pIC50 in assay [1] was 8.70; in assay [2], 6.24.

As for `CC1(Cc2nnc(C(c3nc4ccc(-c5cccc(C(=O)N6CCC(O)CC6)c5)cc4s3)S(C)(=O)=O)o2)NC(=O)NC1=O` (centres unmarked) [Example 212, 5-{[5-({6-[3-(4-hydroxypiperidine-1-carbonyl)phenyl]-1,3-benzothiazol-2-yl} (methanesulfonyl)methyl)-1,3,4-oxadiazol-2-yl]methyl}-5-methyl-imidazolidine-2,4-dione], the pIC50 in assay [1] was 8.70; in assay [2], 5.96.

Take `CNC(=O)c1cccc(-c2ccc3nc(C(c4nnc(CC5(C)NC(=O)NC5=O)o4)S(C)(=O)=O)sc3c2)c1` (centres unmarked) [Example 218, 3-{2-[methanesulfonyl({5-[(4-methyl-2,5-dioxoimidazolidin-4-yl)methyl]-1,3,4-oxadiazol-2-yl})methyl]-1,3-benzothiazol-6-yl}-N-methylbenzamide]: the figures for the pIC50 in assay [1] and in assay [2] were 8.00 and 6.58, respectively.

Consider `CC1(Cc2nnc(C(c3nc4ccc(-c5cccc(C(=O)N6CC[C@@H](O)C6)c5)cc4s3)S(C)(=O)=O)o2)NC(=O)NC1=O` (stereo partly drawn) [Example 219, 5-({5-[(6-{3-[(3R)-3-hydroxypyrrolidine-1-carbonyl]phenyl}-1,3-benzothiazol-2-yl) (methanesulfonyl)methyl]-1,3,4-oxadiazol-2-yl}methyl)-5-methyl-imidazolidine-2,4-dione], for which the pIC50 in assay [1] was 8.70; in assay [2], 5.64.

For `CN(C(=O)c1cccc(-c2ccc3nc(C(c4nnc(CC5(C)NC(=O)NC5=O)o4)S(C)(=O)=O)sc3c2)c1)C1CC1` (centres unmarked) [Example 221, N-cyclopropyl-3-{2-[methanesulfonyl({5-[(4-methyl-2,5-dioxoimidazolidin-4-yl)methyl]-1,3,4-oxadiazol-2-yl})methyl]-1,3-benzothiazol-6-yl}-N-methylbenzamide], the negative-log IC50 (pIC50) in assay [1] was 9.00; in assay [2], 7.60.

Take `COC1(C)CN(C(=O)c2cccc(-c3ccc4nc(C(c5nnc(CC6(C)NC(=O)NC6=O)o5)S(C)(=O)=O)sc4c3)c2)C1` (centres unmarked) [Example 222, 5-({5-[methanesulfonyl({6-[3-(3-methoxy-3-methyl-azetidine-1-carbonyl)phenyl]-1,3-benzothiazol-2-yl})methyl]-1,3,4-oxadiazol-2-yl}methyl)-5-methyl-imidazolidine-2,4-dione]: the pIC50 in assay [1] is 8.10; in assay [2] it was 6.79.

Regarding `CC1(Cc2nnc(C(c3nc4ccc(-c5cccc(C(=O)NC6CC(F)(F)C6)c5)cc4s3)S(C)(=O)=O)o2)NC(=O)NC1=O` (centres unmarked) [Example 223, N-(3,3-difluorocyclobutyl)-3-{2-[methanesulfonyl({5-[(4-methyl-2,5-dioxo-imidazolidin-4-yl)methyl]-1,3,4-oxadiazol-2-yl})methyl]-1,3-benzothiazol-6-yl} benzamide], the pIC50 in assay [1] was 7.49; in assay [2], 7.26.

On to `CC1(NC(=O)c2cccc(-c3ccc4nc(C(c5nnc(CC6(C)NC(=O)NC6=O)o5)S(C)(=O)=O)sc4c3)c2)CC1` (centres unmarked) [Example 224, 3-{2-[methanesulfonyl({5-[(4-methyl-2,5-dioxo-imidazolidin-4-yl)methyl]-1,3,4-oxadiazol-2-yl})methyl]-1,3-benzothiazol-6-yl}-N-(1-methylcyclopropyl) benzamide], for which the pIC50 in assay [1] is 7.96; in assay [2], 7.12.

Turning to `CC1(Cc2nnc(C(c3nc4ccc(-c5cccc(C(=O)NC6CC6)c5)cc4s3)S(C)(=O)=O)o2)NC(=O)NC1=O` (centres unmarked) [Example 225, N-cyclopropyl-3-{2-[methanesulfonyl({5-[(4-methyl-2,5-dioxo-imidazolidin-4-yl)methyl]-1,3,4-oxadiazol-2-yl})methyl]-1,3-benzothiazol-6-yl}benzamide], the pIC50 in assay [1] was 8.30; in assay [2], 7.29.

On to `CC(C)CN(C)C(=O)c1cccc(-c2ccc3nc(C(c4nnc(CC5(C)NC(=O)NC5=O)o4)S(C)(=O)=O)sc3c2)c1` (centres unmarked) [Example 226, 3-{2-[methanesulfonyl({5-[(4-methyl-2,5-dioxo-imidazolidin-4-yl)methyl]-1,3,4-oxadiazol-2-yl})methyl]-1,3-benzothiazol-6-yl}-N-methyl-N-(2-methylpropyl)benzamide], for which the results for the pIC50 in assay [1] and in assay [2] were 7.46 and 7.28, respectively.

Turning to `COCCN(C)C(=O)c1cccc(-c2ccc3nc(C(c4nnc(CC5(C)NC(=O)NC5=O)o4)S(C)(=O)=O)sc3c2)c1` (centres unmarked) [Example 227, 3-{2-[methanesulfonyl({5-[(4-methyl-2,5-dioxo-imidazolidin-4-yl)methyl]-1,3,4-oxadiazol-2-yl})methyl]-1,3-benzothiazol-6-yl}-N-(2-methoxyethyl)-N-methylbenzamide], the figures for the pIC50 in assay [1] and in assay [2] were 7.42 and 6.45, respectively.

Turning to `CC1(Cc2nnc(C(c3nc4ccc(-c5cccc(C(=O)N6CC[C@H](F)C6)c5)cc4s3)S(C)(=O)=O)o2)NC(=O)NC1=O` (stereo partly drawn) [Example 228, 5-({5-[(6-{3-[(3S)-3-fluoropyrrolidine-1-carbonyl]phenyl}-1,3-benzothiazol-2-yl) (methanesulfonyl)methyl]-1,3,4-oxadiazol-2-yl}methyl)-5-methyl-imidazolidine-2,4-dione], the results for the negative-log IC50 (pIC50) in assay [1] and in assay [2] were 6.94 and 6.77, respectively.

What is called pIC50 is the negative decadic logarithm of the IC50, by convention in mol/L.
